Source: US7572454B2, “T helper cell epitopes” (priority 1999, dated 2009)

System: PBMCs from dogs immunised with CDV
Test: T-cell proliferation after in vitro stimulation of PBMC with peptide pools, tested with autologous APCs and single peptides
Assay type: cell-based, dog
Experimental: An alternate strategy was used to increase the precursor frequency of specific T cells recognising the CDV peptides. Fresh PBMCs obtained from these hyperimmunised dogs were subjected to stimulation in vitro with pools of all 94 peptides for 30 minutes at 37° C. The cells were then washed to remove any excess peptides and cultured for 7 days. This population of T cells was then tested with autologous APCs with every single peptide as the antigen.
To confirm this observation, the same four dogs were bled again, five weeks after receiving the dose of killed virus. The PBMCs were stimulated in vitro with pools of either all 94 peptides or peptides 21-40 (because most of the activity was in this region) and after 7 days of culture the stimulated T cells were tested against individual peptides. Significant stimulatory indices were obtained with all peptides, confirming the above results. Four more dogs which received only one dose of 3 in 1 vaccine were tested using the in vitro stimulation method and all four dogs responded to the majority of peptides shown in Table 2.
Once again the same peptides and one additional peptide P32 were tested on cells from additional dogs.

[1] = Table 1, Beagle Foxhound (Dog #18), hyperimmunised, PBMC stimulated with pool of all 94 peptides, 7 days culture
[2] = Table 1, Beagle Foxhound (Dog #19)
[3] = Table 1, Beagle Foxhound (Dog #20)
[4] = Table 1, Beagle Foxhound (Dog #21)
[5] = Table 3, Kelpie Foxhound (Dog #125)
[6] = Table 2, Beagle Foxhound (Dog #71), one dose of 3 in 1 vaccine
[7] = Table 2, Beagle Foxhound (Dog #72), one dose of 3 in 1 vaccine

Row | Sequence | Stimulatory index [1] | Stimulatory index [2] | Stimulatory index [3] | Stimulatory index [4] | Stimulatory index [5] | Stimulatory index (Table 5, Border Collie) | Stimulatory index (Table 5, Fox Terrier) | Stimulatory index (Table 5, Grey hound) | Stimulatory index (Table 5, Kelpie Pointer) | Stimulatory index (Table 5, Poodle Shitzu) | Stimulatory index (Table 5, Terrier Cross) | Stimulatory index (Table 4, Beagle Foxhound #19) | Stimulatory index (Table 4, Beagle Foxhound #20) | Stimulatory index (Table 4, Poodle Shitzu) | reaction with peripheral blood mononuclear cells (dogs of various breeds immunised with CDV) | Stimulatory index [6] | Stimulatory index (Table 2, Beagle Foxhound (Dog #73), one dose of 3 in 1 vaccine) | Stimulatory index [7]
1 | CIRGDTSSCARTLVSGT (canine distemper virus; synthetic peptide from canine distemper virus fusion protein (CDV-F) designated peptide P68) | 6.6 | <2 | <2 | 11.7 | 2.9 | <2 | <2 | <2 | <2 | 5 | <2 |  |  |  |  |  |  | 
2 | DESSCVFVSESAICSQN (canine distemper virus; synthetic peptide from canine distemper virus fusion protein (CDV-F) designated peptide P64) |  |  |  |  |  | <2 | <2 | <2 | <2 | 50 | <2 | 2.5 | 2.5 | 50.0 | react strongly |  |  | 
3 | EPINQALTLMTKNVKPL (canine distemper virus; synthetic peptide from canine distemper virus fusion protein (CDV-F) designated peptide P29) | 3.5 | 42 | 4.4 | <2 | 3.6 | <2 | <2 | <2 | <2 | 2 | 2 |  |  |  |  | 2 | 6 | 
4 | EQSNKAIEEIREATQET (canine distemper virus; synthetic peptide from canine distemper virus fusion protein (CDV-F) designated peptide P39) |  |  |  |  | 2.9 |  |  |  |  |  |  |  |  |  |  |  |  | 
5 | FAGVVLAGVALGVATAA (canine distemper virus; synthetic peptide from canine distemper virus fusion protein (CDV-F) designated peptide P33) |  |  |  |  | 6 | 2 | <2 | <2 | 2 | <2 | <2 |  |  |  |  |  |  | 1.6
6 | GIALHQSNLNAQAIQSL (canine distemper virus; synthetic peptide from canine distemper virus fusion protein (CDV-F) designated peptide P36) | 6.7 | 3.7 | 3.3 | 16 | 3 |  |  |  |  |  |  |  |  |  |  |  |  | 
7 | GVALGVATAAQITAGIA [Peptide P34] |  |  |  |  | 2.1 |  |  |  |  |  |  |  |  |  |  |  |  | 
8 | IGTDNVHYKIMTRPSHQ (canine distemper virus; synthetic peptide from canine distemper virus fusion protein (CDV-F) designated peptide P22) |  |  |  |  |  |  |  |  |  |  |  |  |  |  |  |  |  | 2.6
9 | KLLNSVLEPINQALTLM (canine distemper virus; synthetic peptide from canine distemper virus fusion protein (CDV-F) designated peptide P28) |  |  |  |  | 1.9 |  |  |  |  |  |  |  |  |  |  | 2 |  | 
10 | NLNAQAIQSLRTSLEQS (canine distemper virus; synthetic peptide from canine distemper virus fusion protein (CDV-F) designated peptide P37) | 6.9 | 10.9 | 8.2 | 26 | 2.5 | <2 | <2 | <2 | 2 | <2 | 2 |  |  |  |  |  |  | 1.7
11 | QPSTELEETRTSRARHS (canine distemper virus; synthetic peptide from canine distemper virus fusion protein (CDV-F) designated peptide P4) | 4.9 | <2 | 3.3 | 4.6 |  | 2 | <2 | 2 | 3.5 | 44 | 2 |  |  |  |  |  |  | 
12 | QSLRTSLEQSNKAIEEI (canine distemper virus; synthetic peptide from canine distemper virus fusion protein (CDV-F) designated peptide P38) | 2.8 | 6.7 | 3.6 | 4.2 | 2.2 |  |  |  |  |  |  |  |  |  |  |  |  | 
13 | RHSTTSAQRSTHYDPRT (canine distemper virus; synthetic peptide from canine distemper virus fusion protein (CDV-F) designated peptide P6) | 2.5 | <2 | 4 | 5.1 |  | 2 | <2 | <2 | <2 | 38 | <2 |  |  |  |  |  |  | 
14 | SGRRQRRFAGVVLAGVA (canine distemper virus; synthetic peptide from canine distemper virus fusion protein (CDV-F) designated peptide P32) |  |  |  |  |  | <2 | <2 | 2 | <2 | <2 | <2 |  |  |  |  |  |  | 
15 | SHQYLVIKLIPNASLIE (canine distemper virus; synthetic peptide from canine distemper virus fusion protein (CDV-F) designated peptide P24) | 5.8 | 9.9 | 2.8 | 29 |  |  |  |  |  |  |  |  |  |  |  | 3.2 |  | 2.2
16 | TELLSIFGPSLRDPISA (canine distemper virus; synthetic peptide from canine distemper virus fusion protein (CDV-F) designated peptide P47) | 3.3 | 85.7 | 2.9 | 1.9 | 2.7 |  |  |  |  |  |  |  |  |  |  |  |  | 
17 | TRSRKQTSHRLKNIPVH (canine distemper virus; synthetic peptide from canine distemper virus fusion protein (CDV-F) designated peptide P10) | 2.3 | <2 | 3.2 | 9.1 |  | 3 | 2.2 | 2 | 2.4 | 50 | 2.1 |  |  |  |  |  |  | 
